Inhibition data for 30 compounds are collected here from patent publication US8436043B2 (Takeda Pharmaceutical Company Limited, priority 2008, dated 2013).

T1 sequence (P47871 26-477): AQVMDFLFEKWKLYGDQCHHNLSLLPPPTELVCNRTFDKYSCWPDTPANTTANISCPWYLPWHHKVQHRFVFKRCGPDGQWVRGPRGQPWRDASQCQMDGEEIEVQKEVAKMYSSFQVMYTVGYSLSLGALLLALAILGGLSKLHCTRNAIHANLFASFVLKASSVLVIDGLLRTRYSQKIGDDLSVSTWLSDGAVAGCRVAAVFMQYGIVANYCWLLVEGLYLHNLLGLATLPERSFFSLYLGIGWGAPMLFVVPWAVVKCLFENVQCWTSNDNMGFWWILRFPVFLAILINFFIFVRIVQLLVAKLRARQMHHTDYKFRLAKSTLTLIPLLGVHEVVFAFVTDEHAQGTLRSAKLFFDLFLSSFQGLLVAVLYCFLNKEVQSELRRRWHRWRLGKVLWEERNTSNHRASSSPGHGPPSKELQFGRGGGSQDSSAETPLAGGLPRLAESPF

This experiment addresses T1, human glucagon receptor (Homo sapiens, UniProt P47871).
T1 construct: made in house; host or cells: FreeStyle CHO cells, transient transfection with pMSRαneo/hGCGR; membrane fraction (35,000 rpm pellet)
The experiment can be described thus: Glucagon binding inhibitory activity ([125I]-glucagon binding to glucagon receptor membrane protein). Conditions: test compound 10 μM; 0.4% DMSO = 0%, non-labeled glucagon 1 μM = 100%; read-out: inhibitory rate (%) at 10 μM. In outline: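 Receptor source was a membrane fraction of transiently transfected CHO cells bearing human receptor; 90 min room-temperature binding, filtration harvest, scintillation counting.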
For the compound `COc1ccc2oc(C(Nc3ccc(C(=O)NCCC(=O)O)cc3)C3CCCCC3)c(C#N)c2c1` (stereo not drawn) [Example A108, 3-{[(4-{[(3-cyano-5-methoxy-1-benzofuran-2-yl)(cyclohexyl)methyl]amino}phenyl)carbonyl]amino}propanoic acid], the inhibition at 10 µM was determined as 58%.

As to `COc1ccc2oc(C(Nc3ccc(C(=O)N(C)CCC(=O)O)cc3)C3CCCCC3)c(C#N)c2c1` (stereo not drawn) [Example A109, 3-{[(4-{[(3-cyano-5-methoxy-1-benzofuran-2-yl)(cyclohexyl)methyl]amino}phenyl)carbonyl](methyl)amino}-propanoic acid], the inhibition at 10 µM was 58%.

On to `Cc1c(C(Nc2ccc(C(=O)N(C)CCC(=O)O)cc2)C2CCCCC2)oc2ccc(NS(C)(=O)=O)cc12` (stereo not drawn) [Example A111, 3-[({4-[(cyclohexyl{3-methyl-5-[(methylsulfonyl)amino]-1-benzofuran-2-yl}methyl)amino]phenyl}carbonyl)(methyl)amino]propanoic acid], for which the inhibition at 10 µM was found to be 70%.

Regarding `Cc1c(C(Nc2ccc(C(=O)NCCC(=O)O)cc2)C2CCCCC2)oc2cccnc12` (stereo not drawn) [Example A112, 3-{[(4-{[cyclohexyl(3-methylfuro[3,2-b]pyridin-2-yl)methyl]amino}phenyl)carbonyl]amino}propanoic acid], the inhibition at 10 µM amounted to 85%.

As for `Cc1c(C(Nc2ccc(C(=O)N(C)CCC(=O)O)cc2)C2CCCCC2)oc2cccnc12` (stereo not drawn) [Example A113, 3-{[(4-{[cyclohexyl(3-methylfuro[3,2-b]pyridin-2-yl)methyl]amino}phenyl)carbonyl](methyl)amino}propanoic acid], the inhibition at 10 µM turned out to be 68%.

For `COc1ccc2oc(C(Nc3ccc(C(=O)N(C)CCC(=O)O)cc3)c3ccccc3)c(C)c2c1` (stereo not drawn) [Example A114, 3-{[(4-{[(5-methoxy-3-methyl-1-benzofuran-2-yl)(phenyl)methyl]amino}phenyl)carbonyl](methyl)amino}-propanoic acid], the inhibition at 10 µM was 70%.

For the compound `CCNC(=O)Nc1ccc2oc(C(Nc3ccc(C(=O)N(C)CCC(=O)O)cc3)C3CCCCC3)c(C)c2c1` (stereo not drawn) [Example A115, 3-[({4-[(cyclohexyl{5-[(ethylcarbamoyl)amino]-3-methyl-1-benzofuran-2-yl}methyl)amino]phenyl}carbonyl)(methyl)amino]propanoic acid], the inhibition at 10 µM was 53%.

For the compound `COc1ccc2nc(C(Nc3ccc(C(=O)NCCC(=O)O)cc3)C3CCCCC3)n(C)c2c1` (stereo not drawn) [Example A116, 3-{[(4-{[cyclohexyl(6-methoxy-1-methyl-1H-benzimidazol-2-yl)methyl]amino}phenyl)carbonyl]amino}propanoic acid], the inhibition at 10 µM worked out at 58%.

For the compound `CCCCCCC(Nc1ccc(C(=O)NCCC(=O)O)cc1)c1oc2ccc(OC)cc2c1C` (stereo not drawn) [Example A118, 3-{[(4-{[1-(5-methoxy-3-methyl-1-benzofuran-2-yl)heptyl]amino}phenyl)carbonyl]amino}propanoic acid], the inhibition at 10 µM came to 70%.

Regarding `CCCCCCC(Nc1ccc(C(=O)N(C)CCC(=O)O)cc1)c1oc2ccc(OC)cc2c1C` (stereo not drawn) [Example A119, 3-{[(4-{[1-(5-methoxy-3-methyl-1-benzofuran-2-yl)heptyl]amino}phenyl)carbonyl](methyl)amino}propanoic acid], the inhibition at 10 µM was found to be 70%.

As for `COc1ccc2oc(C(CCCCSC)Nc3ccc(C(=O)NCCC(=O)O)cc3)c(C)c2c1` (stereo not drawn) [Example A120, 3-{[(4-{[1-(5-methoxy-3-methyl-1-benzofuran-2-yl)-5-(methylsulfanyl)pentyl]amino}phenyl)carbonyl]amino}propanoic acid], the inhibition at 10 µM was 73%.

In the case of `COc1ccc2oc(C(CCCCSC)Nc3ccc(C(=O)N(C)CCC(=O)O)cc3)c(C)c2c1` (stereo not drawn) [Example A121, 3-{[(4-{[1-(5-methoxy-3-methyl-1-benzofuran-2-yl)-5-(methylsulfanyl)pentyl]amino}phenyl)carbonyl](methyl)amino}-propanoic acid], the inhibition at 10 µM turned out to be 59%.

With `COCCCCC(Nc1ccc(C(=O)NCCC(=O)O)cc1)c1oc2ccc(OC)cc2c1C` (stereo not drawn) [Example A123, 3-{[(4-{[5-methoxy-1-(5-methoxy-3-methyl-1-benzofuran-2-yl)pentyl]amino}phenyl)carbonyl]amino}propanoic acid], the inhibition at 10 µM is 71%.

With `COCCCCC(Nc1ccc(C(=O)N(C)CCC(=O)O)cc1)c1oc2ccc(OC)cc2c1C` (stereo not drawn) [Example A124, 3-{[(4-{[5-methoxy-1-(5-methoxy-3-methyl-1-benzofuran-2-yl)pentyl]amino}phenyl)carbonyl](methyl)amino}propanoic acid], the inhibition at 10 µM was 51%.

On to `Cc1c(C(Nc2ccc(C(=O)NCCC(=O)O)cc2)C2CCCCC2)oc2ccc(Br)nc12` (stereo not drawn) [Example A125, 3-{[(4-{[(5-bromo-3-methylfuro[3,2-b]pyridin-2-yl)(cyclohexyl)methyl]amino}phenyl)carbonyl]amino}propanoic acid], for which the inhibition at 10 µM stood at 69%.

In the case of `Cc1c(C(Nc2ccc(C(=O)N(C)CCC(=O)O)cc2)C2CCCCC2)oc2ccc(Br)nc12` (stereo not drawn) [Example A126, 3-{[(4-{[(5-bromo-3-methylfuro[3,2-b]pyridin-2-yl)(cyclohexyl)methyl]amino}phenyl)carbonyl](methyl)amino}-propanoic acid], the inhibition at 10 µM turned out to be 68%.

With `Cc1c(C(Nc2ccc(C(=O)NCCC(=O)O)cc2)C2CCCCC2)oc2ccc(Cl)nc12` (stereo not drawn) [Example A127, 3-{[(4-{[(5-chloro-3-methylfuro[3,2-b]pyridin-2-yl)(cyclohexyl)methyl]amino}phenyl)carbonyl]amino}propanoic acid], the inhibition at 10 µM worked out at 71%.

As for `Cc1c(C(Nc2ccc(C(=O)N(C)CCC(=O)O)cc2)C2CCCCC2)oc2ccc(Cl)nc12` (stereo not drawn) [Example A128, 3-{[(4-{[(5-chloro-3-methylfuro[3,2-b]pyridin-2-yl)(cyclohexyl)methyl]amino}phenyl)carbonyl](methyl)amino}-propanoic acid], the inhibition at 10 µM turned out to be 83%.

Turning to `Cc1c(C(Nc2ccc(C(=O)N(C)CCC(=O)O)cc2)C2CCCCC2)oc2ccc(NC(=O)c3ccccc3)cc12` (stereo not drawn) [Example A129, 3-[({4-[(cyclohexyl{3-methyl-5-[(phenylcarbonyl)amino]-1-benzofuran-2-yl]methyl)amino}phenyl]carbonyl)(methyl)amino}propanoic acid], the inhibition at 10 µM was determined as 82%.

Regarding `Cc1c(C(Nc2ccc(C(=O)N(C)CCC(=O)O)cc2)C2CCCCC2)oc2ccc(NS(=O)(=O)c3ccccc3)cc12` (stereo not drawn) [Example A130, 3-[({4-[(cyclohexyl{3-methyl-5-[(phenylsulfonyl)amino]-1-benzofuran-2-yl}methyl)amino]phenyl}carbonyl)(methyl)amino]propanoic acid], the inhibition at 10 µM is 76%.

Turning to `Cc1c(C(Nc2ccc(C(=O)N(C)CCC(=O)O)cc2)C2CCCCC2)oc2ccc(NCc3ccccc3)cc12` (stereo not drawn) [Example A131, 3-[{[4-({[5-(benzylamino)-3-methyl-1-benzofuran-2-yl](cyclohexyl)methyl}amino)phenyl]carbonyl}(methyl)amino]-propanoic acid], the inhibition at 10 µM turned out to be 87%.

As for `COCCOCc1c(C(Nc2ccc(C(=O)NCCC(=O)O)cc2)C2CCCCC2)oc2ccc(F)cc12` (stereo not drawn) [Example A132, 3-[({4-[(cyclohexyl{5-fluoro-3-[(2-methoxyethoxy)methyl]-1-benzofuran-2-yl}methyl)amino]phenyl}carbonyl)amino]propanoic acid], the inhibition at 10 µM worked out at 83%.

Consider `COCCOCc1c(C(Nc2ccc(C(=O)N(C)CCC(=O)O)cc2)C2CCCCC2)oc2ccc(F)cc12` (stereo not drawn) [Example A133, 3-[({4-[(cyclohexyl{5-fluoro-3-[(2-methoxyethoxy)methyl]-1-benzofuran-2-yl}methyl)amino]phenyl}carbonyl)(methyl)amino]propanoic acid], for which the inhibition at 10 µM was 80%.

Regarding `CCC(CC)C(Nc1ccc(C(=O)NCCC(=O)O)cc1)c1sc2ccccc2c1C` (stereo not drawn) [Example A134, 3-{[(4-{[2-ethyl-1-(3-methyl-1-benzothiophene-2-yl)butyl]amino}phenyl)carbonyl]amino}propanoic acid], the inhibition at 10 µM stood at 82%.

On to `CCC(CC)C(Nc1ccc(C(=O)N(C)CCC(=O)O)cc1)c1sc2ccccc2c1C` (stereo not drawn) [Example A135, 3-{[(4-{[2-ethyl-1-(3-methyl-1-benzothiophen-2-yl)butyl]amino}phenyl)carbonyl](methyl)amino}propanoic acid], for which the inhibition at 10 µM worked out at 76%.

For `Cc1c(C(Nc2ccc(C(=O)N(C)CCC(=O)O)cc2)C2CCCCC2)sc2cnccc12` (stereo not drawn) [Example A136, 3-{[(4-{[cyclohexyl(3-methylthieno[2,3-c]pyridin-2-yl)methyl]amino}phenyl)carbonyl](methyl)amino}propanoic acid], the inhibition at 10 µM came out at 62%.

`Cc1c(C(Nc2ccc(C(=O)NCCC(=O)O)cc2)C2CCCCC2)sc2cnccc12` (stereo not drawn) [Example A137, 3-{[(4-{[cyclohexyl(3-methylthieno[2,3-c]pyridin-2-yl)methyl]amino}phenyl)carbonyl]amino}propanoic acid]: the inhibition at 10 µM came to 75%.

In the case of `Cc1c(C(Nc2ccc(C(=O)NCCC(=O)O)cc2)C2CCCCC2)sc2ccncc12` (stereo not drawn) [Example A138, 3-{[(4-{[cyclohexyl(3-methylthieno[3,2-c]pyridin-2-yl)methyl]amino}phenyl)carbonyl]amino}propanoic acid], the inhibition at 10 µM stood at 85%.

On to `Cc1c(C(Nc2ccc(C(=O)N(C)CCC(=O)O)cc2)C2CCCCC2)sc2ccncc12` (stereo not drawn) [Example A139, 3-{[(4-{[cyclohexyl(3-methylthieno[3,2-c]pyridin-2-yl)methyl]amino}phenyl)carbonyl](methyl)amino}propanoic acid], for which the inhibition at 10 µM worked out at 76%.

Regarding `CCCCCCC(Nc1ccc(C(=O)NCCC(=O)O)cc1)c1cc2cc(Cl)ccc2n1C` (stereo not drawn) [Example A140, 3-{[(4-{[1-(5-chloro-1-methyl-1H-indol-2-yl)heptyl]amino}phenyl)carbonyl]amino}propanoic acid], the inhibition at 10 µM was determined as 83%.
